Laboratory results as given in patent US8304206B2, “Mass spectrometry assays for identifying compounds that activate deacetylases” (Sirtris Pharmaceuticals, Inc., priority 2005, dated 2012).

Target: T1, SIRT1 (Homo sapiens, UniProt Q96EB6)
T1 sequence (Q96EB6 1-747): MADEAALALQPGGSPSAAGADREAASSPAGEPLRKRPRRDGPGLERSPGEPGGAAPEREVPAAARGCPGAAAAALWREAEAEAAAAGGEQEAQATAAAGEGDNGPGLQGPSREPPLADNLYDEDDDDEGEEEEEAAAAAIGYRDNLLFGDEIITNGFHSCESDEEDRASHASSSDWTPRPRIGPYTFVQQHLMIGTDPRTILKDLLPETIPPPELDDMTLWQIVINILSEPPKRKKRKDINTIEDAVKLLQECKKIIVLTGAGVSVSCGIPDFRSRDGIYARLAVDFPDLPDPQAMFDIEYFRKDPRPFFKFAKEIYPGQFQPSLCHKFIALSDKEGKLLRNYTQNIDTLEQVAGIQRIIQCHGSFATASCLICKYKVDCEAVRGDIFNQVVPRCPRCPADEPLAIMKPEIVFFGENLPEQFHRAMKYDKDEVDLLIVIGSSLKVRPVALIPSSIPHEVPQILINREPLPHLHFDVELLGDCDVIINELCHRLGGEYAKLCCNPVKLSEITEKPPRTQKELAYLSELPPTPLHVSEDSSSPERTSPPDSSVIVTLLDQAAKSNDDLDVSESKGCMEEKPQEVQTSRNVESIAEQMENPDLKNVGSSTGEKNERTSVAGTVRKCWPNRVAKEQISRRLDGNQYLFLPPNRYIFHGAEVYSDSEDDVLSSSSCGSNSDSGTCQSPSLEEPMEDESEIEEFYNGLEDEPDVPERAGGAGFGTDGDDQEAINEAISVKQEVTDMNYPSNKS
Test: SIRT1 mass spectrometry assay (screening for activation)
Assay type: biochemical
Conditions: for FOLD ACTIVATION MS: activation of SIRT1, mass spectrometry; for EC50: activation of SIRT1, 0.5 μM peptide substrate (SEQ ID NO: 34), 120 μM NAD+, 10 nM SIRT1, 25 min, read-out: ED50 MS ASSAY

| FOLD ACTIVATION MS | EC50 [µM] | SMILES |
| --- | --- | --- |
| B (Fold Activation<250%) | – | CN(C)c1cccc(C(=O)Nc2ccc(-c3nc4cccnc4[nH]3)cc2)c1 [compound 180] |
| A (Fold activation>250%) | < 50 | COc1ccc(C(=O)Nc2cccc(-c3nc4cccnc4[nH]3)c2)c(OC)c1OC [compound 181] |
| A (Fold activation>250%) | < 50 | COc1cc(C)ccc1C(=O)Nc1cccc(-c2nc3cccnc3[nH]2)c1 [compound 182] |
| A (Fold activation>250%) | – | CN(C)c1cccc(C(=O)Nc2cccc(-c3nc4ncccc4[nH]3)c2)c1 [compound 183] |
| B (Fold Activation<250%) | < 50 | COc1ccc(C(=O)Nc2cccc(-c3nc4ncccc4[nH]3)c2)c(OC)c1 [compound 184] |
| A (Fold activation>250%) | < 50 | COc1ccc(C(=O)Nc2cccc(-c3nc4cccnc4[nH]3)c2)cc1OC [compound 185] |
| B (Fold Activation<250%) | – | COc1cc(C)ccc1C(=O)Nc1ccc(-c2cc3cccnc3o2)cc1 [compound 187] |
| B (Fold Activation<250%) | < 50 | COc1ccc(C(=O)Nc2ccc(-c3cc4cccnc4o3)cc2)c(OC)c1 [compound 190] |
| B (Fold Activation<250%) | < 50 | COc1ccc(C(=O)Nc2cccc(-c3cc4cccnc4o3)c2)c(OC)c1 [compound 191] |
| B (Fold Activation<250%) | – | COc1ccc(C(=O)Nc2cccc(-c3cc4cccnc4o3)c2)cc1OC [compound 192] |
| B (Fold Activation<250%) | – | CN(C)c1cccc(C(=O)Nc2ccc(-c3nc4ncccc4s3)cc2)c1 [compound 196] |
| B (Fold Activation<250%) | < 50 | COc1ccc(C(=O)Nc2ccc(-c3nc4ncccc4s3)cc2)cc1OC [compound 197] |
| B (Fold Activation<250%) | – | COc1ccc(C(=O)Nc2cccc(-c3nc4ncccc4s3)c2)c(OC)c1OC [compound 198] |
| B (Fold Activation<250%) | < 50 | COc1cc(C)ccc1C(=O)Nc1cccc(-c2nc3ncccc3s2)c1 [compound 199] |
| B (Fold Activation<250%) | – | COc1ccc(C(=O)Nc2cccc(-c3nc4ncccc4s3)c2)cc1OC [compound 201] |
| B (Fold Activation<250%) | < 50 | COc1ccc(C(=O)Nc2cccc(-c3nc4ncccc4s3)c2)c(OC)c1 [compound 202] |
| B (Fold Activation<250%) | < 50 | COc1ccc(C(=O)Nc2ccccc2-c2cn3ccsc3n2)cc1OC [compound 203] |
| A (Fold activation>250%) | < 50 | COc1cc(C(=O)Nc2ccccc2-c2cn3ccsc3n2)cc(OC)c1OC [compound 204] |
| A (Fold activation>250%) | – | COc1ccc(C(=O)Nc2ccccc2-c2cn3c(CN(C)C)csc3n2)cc1OC [compound 205] |
| A (Fold activation>250%) | – | COc1cc(C(=O)Nc2ccccc2-c2cn3c(CN(C)C)csc3n2)cc(OC)c1OC [compound 206] |
| A (Fold activation>250%) | – | COc1ccc(C(=O)Nc2ccccc2-c2cn3c(CN4CCNCC4)csc3n2)cc1OC [compound 207] |
| A (Fold activation>250%) | – | COc1cc(C(=O)Nc2ccccc2-c2cn3c(CN4CCNCC4)csc3n2)cc(OC)c1OC [compound 208] |
| A (Fold activation>250%) | – | COc1ccc(C(=O)Nc2ccccc2-c2cn3c(CN4CCOCC4)csc3n2)cc1OC [compound 209] |

The next lines start with the molecule.

| SMILES | FOLD ACTIVATION MS | EC50 [µM] |
| --- | --- | --- |
| COc1ccc(C(=O)Nc2ccc(-c3nc4cccnc4[nH]3)cc2)cc1OC [compound 150] | B (Fold Activation<250%) | < 50 |
| COc1ccc(C(=O)Nc2cc(C(=O)NCCN(C)C)cc(-c3nc4ncccc4o3)c2)cc1OC [compound 153] | B (Fold Activation<250%) | – |
| CN(C)CCNC(=O)c1cc(NC(=O)c2cccc(N(C)C)c2)cc(-c2nc3ncccc3o2)c1 [compound 154] | A (Fold activation>250%) | – |
| COc1ccc(C(=O)Nc2cc(C(=O)NCCN(C)C)cc(-c3nc4ncccc4o3)c2)c(OC)c1 [compound 155] | B (Fold Activation<250%) | – |
| COc1ccc(C(=O)Nc2cc(CN(C)C)cc(-c3nc4ncccc4o3)c2)cc1OC [compound 156] | B (Fold Activation<250%) | – |
| CN(C)Cc1cc(NC(=O)c2cccc(N(C)C)c2)cc(-c2nc3ncccc3o2)c1 [compound 157] | B (Fold Activation<250%) | – |
| COc1ccc(C(=O)Nc2cc(CN(C)C)cc(-c3nc4ncccc4o3)c2)c(OC)c1 [compound 158] | B (Fold Activation<250%) | – |
| COc1ccc(C(=O)Nc2cc(CN3CCNCC3)cc(-c3nc4ncccc4o3)c2)cc1OC [compound 159] | B (Fold Activation<250%) | – |
| CN(C)c1cccc(C(=O)Nc2cc(CN3CCNCC3)cc(-c3nc4ncccc4o3)c2)c1 [compound 160] | A (Fold activation>250%) | – |
| COc1ccc(C(=O)Nc2cc(CN3CCNCC3)cc(-c3nc4ncccc4o3)c2)c(OC)c1 [compound 161] | A (Fold activation>250%) | – |
| COc1ccc(C(=O)Nc2ccccc2-c2nc3ccncc3s2)cc1OC [compound 162] | B (Fold Activation<250%) | < 50 |
| COc1cc(C(=O)Nc2ccccc2-c2nc3ccncc3s2)cc(OC)c1OC [compound 163] | B (Fold Activation<250%) | < 50 |
| COc1ccc(C(=O)Nc2cc(C(=O)N3CCNCC3)cc(-c3nc4ncccc4o3)c2)cc1OC [compound 164] | B (Fold Activation<250%) | – |
| CN(C)Cc1ccc2oc(-c3cccc(NC(=O)c4cccc(N(C)C)c4)c3)nc2n1 [compound 165] | A (Fold activation>250%) | – |
| CN(C)c1cccc(C(=O)Nc2cccc(-c3nc4nc(CN5CCNCC5)ccc4o3)c2)c1 [compound 166] | B (Fold Activation<250%) | – |
| Cc1ccc2oc(-c3cccc(NC(=O)c4cccc(N(C)C)c4)c3)nc2n1 [compound 167] | B (Fold Activation<250%) | – |
| CN(C(=O)Nc1ccccc1-c1nc2ccccc2[nH]1)c1ccccc1 [compound 169] | B (Fold Activation<250%) | < 50 |
| COc1cc(C(=O)Nc2cc(CN(C)C)cc(-c3nc4ccncc4s3)c2)cc(OC)c1OC [compound 174] | A (Fold activation>250%) | – |
| COc1ccc(C(=O)Nc2ccccc2-n2cccc2)cc1OC [compound 175] | B (Fold Activation<250%) | – |
| COc1cc(C(=O)Nc2ccccc2-n2cccn2)cc(OC)c1OC [compound 176] | B (Fold Activation<250%) | – |
| COc1ccc(C(=O)Nc2ccccc2-n2cccn2)cc1OC [compound 177] | B (Fold Activation<250%) | – |
| COc1ccc(C(=O)Nc2ccccc2-c2cn3cc(CN(C)C)sc3n2)cc1OC [compound 178] | A (Fold activation>250%) | – |
| COc1cc(C(=O)Nc2ccccc2-c2cn3cc(CN(C)C)sc3n2)cc(OC)c1OC [compound 179] | A (Fold activation>250%) | < 50 |
| CN(C)c1cccc(C(=O)Nc2cccc(-c3nc4ncccc4s3)c2)c1 [compound 200] | B (Fold Activation<250%) | < 50 |
